This is an account of results in patent US20030190642A1, “Thymus expressed human cytochrome p450(p450tec)” (priority 2003, published 2003).

In the assay the target is T1, P450TEC (Homo sapiens, UniProt Q7Z449).
T1 construct: One of 5 clones contained a putative full length cytochrome, which we have named P450TEC; made in house; host or cells: Sf9 insect cells, recombinant baculovirus (pVL1392 transfer vector); microsomal fraction
T1 sequence (Q7Z449 1-544): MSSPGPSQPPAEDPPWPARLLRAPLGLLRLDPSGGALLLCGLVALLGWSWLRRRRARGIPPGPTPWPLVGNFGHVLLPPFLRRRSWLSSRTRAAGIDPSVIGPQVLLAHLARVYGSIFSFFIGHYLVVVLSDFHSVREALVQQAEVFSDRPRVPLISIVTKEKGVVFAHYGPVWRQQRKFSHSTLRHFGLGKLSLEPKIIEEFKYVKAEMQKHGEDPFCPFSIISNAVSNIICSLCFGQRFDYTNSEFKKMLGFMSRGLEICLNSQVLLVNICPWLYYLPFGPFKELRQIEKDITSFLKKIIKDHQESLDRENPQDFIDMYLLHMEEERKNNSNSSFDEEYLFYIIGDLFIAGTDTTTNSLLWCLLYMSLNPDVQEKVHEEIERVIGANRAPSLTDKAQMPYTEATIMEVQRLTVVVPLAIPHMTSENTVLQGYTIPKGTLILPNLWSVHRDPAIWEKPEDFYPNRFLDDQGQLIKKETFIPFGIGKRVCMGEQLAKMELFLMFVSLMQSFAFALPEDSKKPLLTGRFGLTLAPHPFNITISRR
The assay can be described thus: Arachidonic acid metabolism by baculovirus-Sf9-expressed P450TEC microsomes (HPLC, LC-MS). The class given is biochemical. As to the method: Cultured Sf9 insect cells expressing recombinant P450TEC were harvested 3 days after infection, washed twice with phosphate buffered saline (PBS) and resuspended in lysis buffer (100 mM Tris-HCl, pH 7.4, 1 mM EDTA, 0.5 M sucrose) containing protease inhibitor cocktail (Roche Diagnostics GmbH, Mannheim, Germany, 1 tablet per 10 ml lyses buffer). Cells were disrupted by brief sonication (5-8 bursts of 5 seconds duration) on ice using 550 Sonic Dismembrator (Fisher Scientific, Canada). The resulting cell lysates were successively centrifuged, at 800g, and 10,000g for 10 min each time at 4° C. Microsomal fractions from the 10,000g supernatants were pelleted by centrifugation at ˜1 00,000g for 60 min at 4° C. The pellet was then resuspended in microsomes storage buffer (10 mM Tris-HCl, pH 7.4, 5 mM MgCl2, 1mM EDTA, 150 mM KCI and 10% glycerol) and stored at −70° C. […]
For MS and MS/MS analyses of arachidonic acid metabolites, 5 μM of unlabeled arachidonic acid was incubated for 60 min. […] Similarly, ethyl acetate extracts from microsomal incubations without arachidonic acid was also processed and analyzed by LC-MS. […]

Structures are written as SMILES.

Turning to `CCCCCC=CCC=CCC=CCC=CCCCC(=O)O` [arachidonic acid, 5,8, 11, 14-eicosatetraenoic acid], the “linearity of arachidonic acid metabolite formation with time” value (5 μM [1-14C] arachidonic acid, NADPH-CYP oxidoreductase+b5 and NADPH, 15, 30 and 60 min) is recorded as “directly porportional to time of incubation”. The “metabolite formed from arachidonic acid by P450TEC” value (P450TEC microsomes, NADPH, 1 or 20 μM [1-14C] arachidonic acid, 60 min, 37° C.) was “monohydroxylated arachidonic acid”.
